Converted amounts (≈) assume the structure as drawn. Like-named read-outs stand apart in the source and are kept apart here.
Key:
Experiment in all cases: Minimum inhibitory concentration, serial dilution method on agar plate
Type in all cases: cell-based
[1] = test system: Micrococcus luteus ATCC 4698
[2] = test system: Staphylococcus aureus 50774
[3] = test system: Bacillus subtilis PCI 219
[4] = test system: Corynebacterium diphteriae
[5] = test system: Staphylococcus aureus B-5
[6] = test system: Staphylococcus aureus 90124
[7] = test system: Pseudomonas aeruginosa ATCC 10145; details: Pseudomonas aeruginosa, read-out: Minimum Inhibitory Concentration
Proteus rettgeri NIH 96 = details: Providencia rettgeri
[8] = test system: Staphylococcus aureus E-46
[9] = test system: Micrococcus flavus ATCC 10240a; details: ATCC10240A
[10] = test system: Bacillus pumilus IFO 3813
[11] = test system: Bacillus circuluns ATCC 8241
[12] = test system: Bacteroides thetaiotaomicron WAL 2926
[13] = test system: Serratia marcescens IFO 12648; details: read-out: Minimum Inhibitory Concentration
[14] = test system: Staphylococcus aureus IFO 3060
[15] = test system: Micrococcus lysodeikticus IAM 1313; details: Micrococcus luteus
[16] = test system: Bacillus cereus ATCC 11778
[17] = test system: Staphylococcus epidermidis IFO 3762
[18] = test system: Staphylococcus epidermidis ATCC 12228
Pseudomonas putida 12996 = details: read-out: Minimum Inhibitory Concentration
Klebsiella pneumoniae = details: read-out: Minimum Inhibitory Concentration
[19] = test system: Salmonella typhi 0-901 (NCTC 8393); details: Salmonella enterica
Sarcina lutea PCI 1001 = test system: Sarcina lutea PCI 1001
[20] = test system: Staphylococcus aureus No. 80
[21] = test system: Peptococcus asaccharolyticus WAL 3218; details: Peptoniphilus asaccharolyticus
Bacillus cereus IFO 3001 = test system: Bacillus cereus IFO 3001
[22] = test system: Staphylococcus aureus B-70
Shigella sonnei EW 33 = test system: Shigella sonnei EW 33
Method: The antimicrobial activity of the following test compounds on various test organisms listed below was determined by the serial dilution method on agar plate (Heart Infusion agar produced by Difco Co.) (see CHEMOTHERAPY 22, pp. 1126-1128 (1974)), and the minimum inhibitory concentrations (mcg/ml) obtained are shown in Tables 1, 2 and 3 below.
A sample of each test organism was prepared so that the population of the organism was 1×10^8 cells/ml (O.D. 660 mμ=0.07 to 0.16) and 1×10^6 cells/ml (which was obtained by diluting 100 fold the above 1×10^8 cells/ml preparation).

[23] = test system: Escherichia Coli NIHJ JC-2 (IFO 12734); details: read-out: Minimum Inhibitory Concentration
[24] = test system: Streptococcus pyogenes IID S-23; details: Streptococcus pyogenes, read-out: Minimum Inhibitory Concentration
[25] = test system: Staphylococcus aureus No. 286

For `CC1CCc2c(N3CCC(O)CC3)c(F)cc3c(=O)c(C(=O)O)cn1c23` (centres unmarked) [Compound 1, 9-Fluoro-8-(4-hydroxy-1-piperidyl)-5-methyl-6,7-dihydro-1-oxo-1H,5H-benzo[ij]quinolizine-2-carboxylic acid], the MIC ([1]; ATCC4698, 1×10^6 cells/ml) was 0.1 µg/mL (≈ 0.277 µM), the MIC ([1]; ATCC4698, 1×10^8 cells/ml) was 0.2 µg/mL (≈ 0.555 µM) and the “Minimum Inhibitory Concentration” value ([2]; 1×10^6 cells/ml) was 0.05 µg/mL. The MIC ([2]; Staphylococcus aureus, 50774, 1×10^8 cells/ml) was 0.05 µg/mL (≈ 0.139 µM), the “Minimum Inhibitory Concentration” value ([3]; 1×10^6 cells/ml) was 0.024 µg/mL and the MIC ([3]; Bacillus subtilis, PCI219, 1×10^8 cells/ml) was 0.024 µg/mL (≈ 0.0666 µM). The “Minimum Inhibitory Concentration” value ([4]; 1×10^6 cells/ml) was 0.05 µg/mL, the MIC ([4]; Corynebacterium, 1×10^8 cells/ml) was 0.05 µg/mL (≈ 0.139 µM) and the “Minimum Inhibitory Concentration” value ([5]; 1×10^6 cells/ml) was 0.024 µg/mL. For the same molecule, the MIC ([5]; Staphylococcus aureus, B5, 1×10^8 cells/ml) was 0.024 µg/mL (≈ 0.0666 µM), the “Minimum Inhibitory Concentration” value ([6]; 1×10^6 cells/ml) was 0.10 µg/mL and the MIC ([6]; Staphylococcus aureus, 90124, 1×10^8 cells/ml) was 0.1 µg/mL (≈ 0.277 µM). It also gave an MIC ([7]; ATCC10145, 1×10^6 cells/ml) of 3.13 µg/mL (≈ 8.69 µM), an MIC ([7]; ATCC10145, 1×10^8 cells/ml) of 3.13 µg/mL (≈ 8.69 µM) and an MIC (Proteus rettgeri NIH 96; NIH96, read-out: Minimum Inhibitory Concentration, 1×10^6 cells/ml) of 0.1 µg/mL (≈ 0.277 µM). For the same molecule, the MIC (Proteus rettgeri NIH 96; NIH96, read-out: Minimum Inhibitory Concentration, 1×10^8 cells/ml) was 0.2 µg/mL (≈ 0.555 µM), the “Minimum Inhibitory Concentration” value ([8]; 1×10^6 cells/ml) was 0.05 µg/mL and the MIC ([8]; Staphylococcus aureus, E46, 1×10^8 cells/ml) was 0.05 µg/mL (≈ 0.139 µM). For the same molecule, the MIC ([9]; 1×10^6 cells/ml) was 0.2 µg/mL (≈ 0.555 µM), the MIC ([9]; 1×10^8 cells/ml) was 0.39 µg/mL (≈ 1.08 µM) and the “Minimum Inhibitory Concentration” value ([10]; 1×10^6 cells/ml) was 0.024 µg/mL. The MIC ([10]; Bacillus pumilus, IFO3813, 1×10^8 cells/ml) was 0.024 µg/mL (≈ 0.0666 µM), the “Minimum Inhibitory Concentration” value ([11]; 1×10^6 cells/ml) was 0.024 µg/mL and the MIC ([11]; Bacillus, ATCC8241, 1×10^8 cells/ml) was 0.024 µg/mL (≈ 0.0666 µM). The MIC ([12]; WAL2926, 1×10^6 cells/ml) was 1.56 µg/mL (≈ 4.33 µM), the MIC ([12]; WAL2926, 1×10^8 cells/ml) was 6.25 µg/mL (≈ 17.3 µM) and the MIC ([13]; IFO12648, 1×10^6 cells/ml) was 0.78 µg/mL (≈ 2.16 µM). It also gave an MIC ([13]; IFO12648, 1×10^8 cells/ml) of 1.56 µg/mL (≈ 4.33 µM), an MIC ([14]; IFO3060, 1×10^6 cells/ml) of 0.05 µg/mL (≈ 0.139 µM) and an MIC ([14]; IFO3060, 1×10^8 cells/ml) of 0.1 µg/mL (≈ 0.277 µM). For the same molecule, the MIC ([15]; IAM1313, 1×10^6 cells/ml) was 0.1 µg/mL (≈ 0.277 µM), the MIC ([15]; IAM1313, 1×10^8 cells/ml) was 0.2 µg/mL (≈ 0.555 µM) and the “Minimum Inhibitory Concentration” value ([16]; 1×10^6 cells/ml) was 0.10 µg/mL. For the same molecule, the MIC ([16]; Bacillus cereus, ATCC11778, 1×10^8 cells/ml) was 0.1 µg/mL (≈ 0.277 µM), the MIC ([17]; IFO3762, 1×10^6 cells/ml) was 0.2 µg/mL (≈ 0.555 µM) and the MIC ([17]; IFO3762, 1×10^8 cells/ml) was 0.39 µg/mL (≈ 1.08 µM). For the same molecule, the “Minimum Inhibitory Concentration” value ([18]; 1×10^6 cells/ml) was 0.05 µg/mL, the MIC ([18]; Staphylococcus epidermidis, ATCC12228, 1×10^8 cells/ml) was 0.05 µg/mL (≈ 0.139 µM) and the MIC (Pseudomonas putida 12996; Pseudomonas putida, 12996, 1×10^6 cells/ml) was 6.25 µg/mL (≈ 17.3 µM). It also gave an MIC (Pseudomonas putida 12996; Pseudomonas putida, 12996, 1×10^8 cells/ml) of 6.25 µg/mL (≈ 17.3 µM), an MIC (Klebsiella pneumoniae; 1×10^6 cells/ml) of 0.39 µg/mL (≈ 1.08 µM) and an MIC (Klebsiella pneumoniae; 1×10^8 cells/ml) of 0.39 µg/mL (≈ 1.08 µM). The MIC ([19]; read-out: Minimum Inhibitory Concentration, 1×10^6 cells/ml) was 0.05 µg/mL (≈ 0.139 µM), the MIC ([19]; read-out: Minimum Inhibitory Concentration, 1×10^8 cells/ml) was 0.1 µg/mL (≈ 0.277 µM) and the “Minimum Inhibitory Concentration” value (Sarcina lutea PCI 1001; 1×10^6 cells/ml) was 0.39 µg/mL. The MIC (Sarcina lutea PCI 1001; Micrococcus luteus, PCI1001, 1×10^8 cells/ml) was 0.39 µg/mL (≈ 1.08 µM), the MIC ([20]; NO.80, 1×10^6 cells/ml) was 0.024 µg/mL (≈ 0.0666 µM) and the MIC ([20]; NO.80, 1×10^8 cells/ml) was 0.05 µg/mL (≈ 0.139 µM). The MIC ([21]; WAL3218, 1×10^6 cells/ml) was 0.78 µg/mL (≈ 2.16 µM), the MIC ([21]; WAL3218, 1×10^8 cells/ml) was 1.56 µg/mL (≈ 4.33 µM) and the “Minimum Inhibitory Concentration” value (Bacillus cereus IFO 3001; 1×10^6 cells/ml) was 0.10 µg/mL. For the same molecule, the MIC (Bacillus cereus IFO 3001; Bacillus cereus, IFO3001, 1×10^8 cells/ml) was 0.1 µg/mL (≈ 0.277 µM), the MIC ([22]; B70, 1×10^6 cells/ml) was 0.024 µg/mL (≈ 0.0666 µM) and the MIC ([22]; B70, 1×10^8 cells/ml) was 0.05 µg/mL (≈ 0.139 µM). The MIC (Shigella sonnei EW 33; EW33, 1×10^6 cells/ml) was 0.2 µg/mL (≈ 0.555 µM), the MIC (Shigella sonnei EW 33; EW33, 1×10^8 cells/ml) was 0.2 µg/mL (≈ 0.555 µM) and the MIC ([23]; 1×10^6 cells/ml) was 0.39 µg/mL (≈ 1.08 µM). It also gave an MIC ([23]; 1×10^8 cells/ml) of 0.39 µg/mL (≈ 1.08 µM), an MIC ([24]; IIDS23, 1×10^6 cells/ml) of 0.39 µg/mL (≈ 1.08 µM) and an MIC ([24]; IIDS23, 1×10^8 cells/ml) of 0.78 µg/mL (≈ 2.16 µM). The MIC ([25]; NO.286, 1×10^6 cells/ml) was 0.05 µg/mL (≈ 0.139 µM) and the MIC ([25]; NO.286, 1×10^8 cells/ml) was 0.1 µg/mL (≈ 0.277 µM).
